Assay results published in patent EP4806898A1, “HETEROARYL DERIVATIVE COMPOUND AND USE THEREOF” (Voronoi Inc., priority 2023, dated 2025).
Where two headings read alike, the source gives them in different places.

Columns and labels:
recombinant USP1 protein = biological target: T1, recombinant USP1 protein (Homo sapiens, UniProt O94782, DEL125-138/DEL229-408/DEL608-737); experiment: Binding affinity to recombinant USP1 protein by differential scanning fluorimetry; conditions: read-out: ΔTm (°C)
T1 sequence (O94782 with tags, fused parts or gaps DEL125-138/DEL229-408/DEL608-737): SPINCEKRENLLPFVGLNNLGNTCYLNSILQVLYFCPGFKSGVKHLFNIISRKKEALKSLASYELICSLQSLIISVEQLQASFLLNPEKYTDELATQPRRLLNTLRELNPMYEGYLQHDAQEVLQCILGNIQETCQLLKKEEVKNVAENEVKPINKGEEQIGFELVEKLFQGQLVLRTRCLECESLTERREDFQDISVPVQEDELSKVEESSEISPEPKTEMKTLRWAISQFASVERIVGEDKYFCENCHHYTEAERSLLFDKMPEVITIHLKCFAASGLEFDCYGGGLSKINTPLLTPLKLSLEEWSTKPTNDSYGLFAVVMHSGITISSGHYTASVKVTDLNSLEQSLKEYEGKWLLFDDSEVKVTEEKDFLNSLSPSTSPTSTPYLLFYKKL
Method: <Experimental Example 1> Confirmation and evaluation of the binding affinity to recombinant USP1 protein
To evaluate the binding affinity of the compounds of the present invention to the USP1 protein, the following experiment was performed using differential scanning fluorimetry.
Recombinant 0.03 mg/mL USP1 (Δ1-66, Δ125-138, Δ229-408, Δ608-737) protein, dye reagent, and buffer solution (50 mM Tris-HCl pH 8.0, 150 mM NaCl, 2% glycerol, 1 mM DTT) were mixed and 19 µL of the mixture was dispensed into a well plate (MicroAmp Fast 96-Well Reaction plate, 0.1 mL). Each compound was injected at a final concentration of 100 µM in an amount of 1 µL, and the plate containing a total of 20 µL was sealed with MicroAmp Optical Adhesive Film. The melting temperature (Tm) of the protein in each well was measured using a real-time PCR (RT-PCR) device. The difference between the Tm of the sample containing the compound and the Tm containing DMSO is referred to as delta Tm (ΔTm), where a larger ΔTm value indicates stronger binding affinity. The degree of temperature at which the protein is modified in the presence of the compound compared to DMSO was calculated according to Equation 1 below: [formula]

UWB1.289 cells = experiment: Cell proliferation inhibitory activity in BRCA1/2-mutant or HRD-positive cells (Cell Titer-Glo); assay type: cell-based; conditions: read-out: GI50 UWB1.289 BRCA1 mut
Method: <Experimental Example 2> Evaluation of Cell Proliferation Inhibitory Activity in BRCA1/2-Mutant or HRD-Positive Cells
To evaluate the inhibitory activity of the compound according to the present invention on the proliferation of BRCA1/2 mutants or homologous recombination deficient (HRD) positive cell lines, the following experiments were performed. UWB1.289 cells were cultured in medium (50% MEBM + 50% RPMI1640), and 1,000 cells were seeded in a well plate (black clear bottom 96-well plate, Corning) 16 to 24 hours prior to compound treatment. The compounds were diluted in dimethyl sulfoxide (3-fold serial dilution starting at 10 µM, for a total of 10 concentrations) and injected at 1 µl per well, resulting a final concentration range of […] to 10 µM. Measurements of live cells were performed by a reaction in a 37 °C and CO2 incubator for 144 hours after compound treatment. The cells were incubated for 10 minutes in an incubator using Cell Titer-Glo luminescent cell-viability reagent (Promega), and luminescence intensity thereof was measured using a reader (SynergyNeo2, Biotek). GI50 values were calculated using the GraphPad Prism version 8.4.3 (GraphPad software Inc., San Diego) program.

[1] = compound 100 µM, 0.03 mg/mL USP1 (Δ1-66, Δ125-138, Δ229-408, Δ608-737), Tm with compound minus Tm with DMSO
[2] = UWB1289, UWB1.289 cells, 144 hours after compound treatment, Cell Titer-Glo, 1.5 nM to 10 µM

Q: For `COc1ncnc(C2CC2)c1-c1ncc2cc(C(=O)NCCN3CCOCC3)n(Cc3ccc(-c4nc(C(F)(F)F)cn4C(C)C)cc3)c2n1` [Example 6, 2-(4-cyclopropyl-6-methoxypyrimidin-5-yl)-7-(4-(1-isopropyl-4-(trifluoromethyl)-1H-imidazol-2-yl)benzyl)-N-(2-morpholinoethyl)-7H-pyrrolo[2,3-d]pyrimidine-6-carboxamide], which ΔTm at 100 µM (recombinant USP1 protein; [1]) is on record?
A: Its ΔTm at 100 µM is over 5 °C.

Q: And the GI50 (UWB1.289 cells; [2])?
A: The GI50 was under 100 nM.

Q: With `COc1ncnc(C2CC2)c1-c1ncc2cc(C(=O)NCC3(CO)CC3)n(Cc3ccc(-c4nc(C(F)(F)F)cn4C(C)C)cc3)c2n1` [Example 7, 2-(4-cyclopropyl-6-methoxypyrimidin-5-yl)-N-((1-(hydroxymethyl)cyclopropyl)methyl)-7-(4-(1-isopropyl-4-(trifluoromethyl)-1H-imidazol-2-yl)benzyl)-7H-pyrrolo[2,3-d]pyrimidine-6-carboxamide] as the compound, how does the ΔTm at 100 µM (recombinant USP1 protein; [1]) read?
A: The ΔTm at 100 µM was over 5 °C.

Q: What about the GI50 (UWB1.289 cells; [2]) of the same compound?
A: Its GI50 is under 100 nM.

Q: Which results are given for `[2H]C([2H])([2H])NC(=O)c1cc2cnc(-c3c(OC)ncnc3C3CC3)nc2n1Cc1ccc(-c2nc(C(F)(F)F)cn2C(C)C)cc1` [Example 9, 2-(4-cyclopropyl-6-methoxypyrimidin-5-yl)-7-(4-(1-isopropyl-4-(trifluoromethyl)-1H-imidazol-2-yl)benzyl)-N-(methyl-d3)-7H-pyrrolo[2,3-d]pyrimidine-6-carboxamide]?
A: ΔTm at 100 µM (recombinant USP1 protein; [1]): > 5 °C; GI50 (UWB1.289 cells; [2]): 100 to 500 nM

Q: How did the ΔTm at 100 µM (recombinant USP1 protein; [1]) turn out when `COc1ncnc(C2CC2)c1-c1ncc2cc(C(=O)NC3CC3(F)F)n(Cc3ccc(-c4nc(C(F)(F)F)cn4C(C)C)cc3)c2n1` (centres unmarked) [Example 10, 2-(4-cyclopropyl-6-methoxypyrimidin-5-yl)-N-(2,2-difluorocyclopropyl)-7-(4-(1-isopropyl-4-(trifluoromethyl)-1H-imidazol-2-yl)benzyl)-7H-pyrrolo[2,3-d]pyrimidine-6-carboxamide] was run?
A: The ΔTm at 100 µM was over 5 °C.

Q: And the GI50 (UWB1.289 cells; [2])?
A: Its GI50 is under 100 nM.

Q: `COc1ncnc(C2CC2)c1-c1ncc2cc(C(=O)NC3CC3)n(Cc3ccc(-c4nc(C(F)(F)F)cn4C(C)C)cc3)c2n1` [Example 11, N-cyclopropyl-2-(4-cyclopropyl-6-methoxypyrimidin-5-yl)-7-(4-(1-isopropyl-4-(trifluoromethyl)-1H-imidazol-2-yl)benzyl)-7H-pyrrolo[2,3-d]pyrimidine-6-carboxamide] was tested. Which ΔTm at 100 µM (recombinant USP1 protein; [1]) did it give?
A: Its ΔTm at 100 µM is over 5 °C.

Q: What about the GI50 (UWB1.289 cells; [2]) of the same compound?
A: Its GI50 is under 100 nM.

Q: Which results are given for `COc1ncnc(C2CC2)c1-c1ncc2cc(C(=O)NCCN(C)C)n(Cc3ccc(-c4nc(C(F)(F)F)cn4C(C)C)cc3)c2n1` [Example 12, 2-(4-cyclopropyl-6-methoxypyrimidin-5-yl)-N-(2-(dimethylamino)ethyl)-7-(4-(1-isopropyl-4-(trifluoromethyl)-1H-imidazol-2-yl)benzyl)-7H-pyrrolo[2,3-d]pyrimidine-6-carboxamide]?
A: ΔTm at 100 µM (recombinant USP1 protein; [1]): > 5 °C; GI50 (UWB1.289 cells; [2]): 100 to 500 nM

Q: `COc1ncnc(C2CC2)c1-c1ncc2cc(C(=O)NC3COC3)n(Cc3ccc(-c4nc(C(F)(F)F)cn4C(C)C)cc3)c2n1` [Example 13, 2-(4-cyclopropyl-6-methoxypyrimidin-5-yl)-7-(4-(1-isopropyl-4-(trifluoromethyl)-1H-imidazol-2-yl)benzyl) -N-(oxetan-3-yl)-7H-pyrrolo[2,3-d]pyrimidine-6-carboxamide] was tested. Which ΔTm at 100 µM (recombinant USP1 protein; [1]) did it give?
A: Its ΔTm at 100 µM is over 5 °C.

Q: And the GI50 (UWB1.289 cells; [2])?
A: Its GI50 is under 100 nM.

Q: Which results are given for `COc1ncnc(C2CC2)c1-c1ncc2cc(C(=O)N3CCC(N4CCOCC4)CC3)n(Cc3ccc(-c4nc(C(F)(F)F)cn4C(C)C)cc3)c2n1` [Example 14, (2-(4-cyclopropyl-6-methoxypyrimid in-5-yl)-7-(4-(1-isopropyl-4-(trifluoromethyl)-1H-imidazol-2-yl)benzyl)-7H-pyrrolo[2,3-d]pyrimidin-6-yl) (4-morpholinopipe ridin-1-yl)methanone]?
A: ΔTm at 100 µM (recombinant USP1 protein; [1]): > 5 °C; GI50 (UWB1.289 cells; [2]): < 100 nM

Q: For `COc1ncnc(C2CC2)c1-c1ncc2cc(C(=O)NC3CCC3)n(Cc3ccc(-c4nc(C(F)(F)F)cn4C(C)C)cc3)c2n1` [Example 15, N-cyclobutyl-2-(4-cyclopropyl-6-methoxypyrimidin-5-yl)-7-(4-(1-isopropyl-4-(trifluoromethyl)-1H-imidazol-2-yl)benzyl)-7H-pyrrolo[2,3-d]pyrimidine-6-carboxamide], which ΔTm at 100 µM (recombinant USP1 protein; [1]) is on record?
A: The ΔTm at 100 µM was over 5 °C.

Q: And the GI50 (UWB1.289 cells; [2])?
A: Its GI50 is under 100 nM.

Q: What does the source list for `COc1ncnc(C2CC2)c1-c1ncc2cc(C(=O)Nc3ccccc3)n(Cc3ccc(-c4nc(C(F)(F)F)cn4C(C)C)cc3)c2n1` [Example 17, 2-(4-cyclopropyl-6-methoxypyrimidin-5-yl)-7-(4-(1-isopropyl-4-(trifluoromethyl)-1H-imidazol-2-yl)benzyl)-N-phenyl-7H-pyrrolo[2,3-d]pyrimidine-6-carboxamide]?
A: ΔTm at 100 µM (recombinant USP1 protein; [1]): > 5 °C; GI50 (UWB1.289 cells; [2]): < 100 nM

Q: Which results are given for `COc1ncnc(C2CC2)c1-c1ncc2cc(C(=O)N3CCC3)n(Cc3ccc(-c4nc(C(F)(F)F)cn4C(C)C)cc3)c2n1` [Example 18, azetidin-1-yl(2-(4-cyclopropyl-6-methoxypyrimidin-5-yl)-7-(4-(1-isopropyl-4-(trifluoromethyl)-1H-imidazol-2-yl)benzyl)-7H-pyrrolo[2,3-d]pyrimidin-6-yl)methanone]?
A: ΔTm at 100 µM (recombinant USP1 protein; [1]): > 5 °C; GI50 (UWB1.289 cells; [2]): < 100 nM

Q: What does the source list for `COc1ncnc(C2CC2)c1-c1ncc2cc(C(=O)NCC3CCC3)n(Cc3ccc(-c4nc(C(F)(F)F)cn4C(C)C)cc3)c2n1` [Example 19, N-(cyclobutylmethyl)-2-(4-cyclopropyl-6-methoxypyrimidin-5-yl)-7-(4-(1-isopropyl-4-(trifluoromethyl)-1H-imidazol-2-yl)benzyl)-7H-pyrrolo[2,3-d]pyrimidine-6-carboxamide]?
A: ΔTm at 100 µM (recombinant USP1 protein; [1]): > 5 °C; GI50 (UWB1.289 cells; [2]): < 100 nM

Q: How did the ΔTm at 100 µM (recombinant USP1 protein; [1]) turn out when `COc1ncnc(C2CC2)c1-c1ncc2cc(C(=O)NCC3(C)CC(F)(F)C3)n(Cc3ccc(-c4nc(C(F)(F)F)cn4C(C)C)cc3)c2n1` [Example 20, 2-(4-cyclopropyl-6-methoxypyrimidin-5-yl)-N-((3,3-difluoro-1-methylcyclobutyl)methyl)-7-(4-(1-isopropyl-4-(trifluoromethyl)-1H-imidazol-2-yl)benzyl)-7H-pyrrolo[2,3-d]pyrimidine-6-carboxamide] was run?
A: Its ΔTm at 100 µM is over 5 °C.

Q: And the GI50 (UWB1.289 cells; [2])?
A: The GI50 was 100 to 500 nM.

Q: How did the ΔTm at 100 µM (recombinant USP1 protein) turn out when `COc1ncnc(C2CC2)c1-c1ncc2cc(C(=O)NCCF)n(Cc3ccc(-c4nc(C(F)(F)F)cn4C(C)C)cc3)c2n1` [Example 21, 2-(4-cyclopropyl-6-methoxypyrimidin-5-yl)-N-(2-fluoroethyl)-7-(4-(1-isopropyl-4-(trifluoromethyl)-1H-imidazol-2-yl)benzyl)-7H-pyrrolo[2,3-d]pyrimidine-6-carboxamide] was run?
A: The ΔTm at 100 µM was over 5 °C.

Q: And the GI50 (UWB1.289 cells; UWB1289, 144 h)?
A: The GI50 was under 100 nM.

Q: How did the ΔTm at 100 µM (recombinant USP1 protein; [1]) turn out when `COc1ncnc(C2CC2)c1-c1ncc2cc(C(=O)NCC#N)n(Cc3ccc(-c4nc(C(F)(F)F)cn4C(C)C)cc3)c2n1` [Example 22, N-(cyanomethyl) - 2-(4-cyclopropyl-6-methoxypyrimidin-5-yl)-7-(4-(1-isopropyl-4-(trifluoromethyl)-1H-imidazol-2-yl)benzyl)-7H-pyrrolo[2,3-d]pyrimidine-6-carboxamide] was run?
A: The ΔTm at 100 µM was over 5 °C.

Q: What about the GI50 (UWB1.289 cells; [2]) of the same compound?
A: Its GI50 is under 100 nM.

Q: Which ΔTm at 100 µM (recombinant USP1 protein; [1]) does the source give for `COC[C@H](C)NC(=O)c1cc2cnc(-c3c(OC)ncnc3C3CC3)nc2n1Cc1ccc(-c2nc(C(F)(F)F)cn2C(C)C)cc1` [Example 23, (S)-2-(4-cyclopropyl-6-methoxypyrimidin-5-yl)-7-(4-(1-isopropyl-4-(trifluoromethyl)-1H-imidazol-2-yl)benzyl)-N-(1-methoxypropan-2-yl)-7H-pyrrolo[2,3-d]pyrimidine-6-carboxamide] here?
A: The ΔTm at 100 µM was over 5 °C.

Q: And the GI50 (UWB1.289 cells; [2])?
A: Its GI50 is under 100 nM.
